Results from article PMC6304572, “Simultaneous Evaluation of the Influence of Panax ginseng on the Pharmacokinetics of Three Diester Alkaloids after Oral Administration of Aconiti Lateralis Radix in Rats Using UHPLC/QQQ-MS/MS” (Evidence-based Complementary and Alternative Medicine : eCAM, 2018).

Key:
[1] = Pharmacokinetics of three diester alkaloids in rat plasma after oral Aconiti Lateralis Radix extract, with or without 7-day P. ginseng pretreatment; assay type: in vivo, Sprague-Dawley rats; conditions: oral Aconiti Lateralis Radix extract 1 g/kg on 8th day
Procedure: Rats were randomly divided into 4 groups: control group, P. ginseng (low, middle, and high) group. 7 days of oral administration of P. ginseng extract was administered at a dosage of 0.1, 1, 10 g/kg for P. ginseng group (low, middle, and high), respectively, once daily. Distilled water was administered at a dosage of 2 ml/kg for control group, simultaneously. On the 8th day, Aconiti Lateralis Radix extracts (1 g/kg) were orally administered to all groups. 0.5 ml plasma samples were collected in 1.5 ml centrifuge tubes (containing heparin sodium) at 10, 30, 60, 90, 120, 240, 480, 720, 1440, and 2880 min. All plasma samples were centrifuged for 15 min at 4000g. The supernatant was separated to another 1.5 ml centrifuge tubes and stored at -20°C.
Liquid-liquid extraction (ethyl acetate) and protein precipitation (50% acetonitrile plus 50% methanol) methods were compared to determine the best method to prepare the plasma sample. Liquid-liquid extraction method was chosen, due to reproducibly high recovery rates. The details of the extraction are as follows: 10 μL carbamazepine (IS) was added to 90 μL plasma, spiked with 400 μL ethyl acetate and the mixture vortexed for 15 seconds. After centrifugation at 12,000g for 10 min, the supernatant was transferred to another 1.5 mL centrifuge tube and dried under a stream of nitrogen at 37°C. The residue was redissolved in 100 μL 50% acetonitrile and centrifuged at 12,000g for 10 min and filtered through a 0.22 μm Micropore membrane. A 5 μL volume of supernatant was injected into LC-MS system for analysis.
Xevo TQ-S (Waters, USA) was utilized for the analysis of all biological samples. Chromatographic separation was conducted on Waters ACQUITY UPLC HSS T3 1.8 μm column (2.1 mm × 100 mm). Column temperature was 45°C and the flow rate was 0.5ml/min. Room temperature was 20 ± 2°C. Phase A consisted of water and 0.1% formic acid (v/v), and phase B consisted of acetonitrile (ACN) 0.1% formic acid (v/v). Column separation was performed by gradient elution: 0-0.5 min, 10% B; 1-2 min, 90% B; 4 min, 10% B.
Electrospray ionization (ESI) and positive ion V mode were used to determine the samples. The main parameters for mass spectrum were set as follows: capillary voltage: 3.5 kv; sample cone: 60 v; source offset: 50 v; source temperature: 150°C; desolvation temperature: 350°C; cone gas flow: 150 L/h; desolvation gas flow: 650 L/h; injection volume: 5 μL.
The data was acquired and analyzed by XEVO-QT-S (Waters). The pharmacokinetic parameters were analyzed by DAS pharmacokinetic program (Version 2.0). SAS statistical software was used to determine the difference between each group. All data was presented as mean ± SD, and P<0.05 was considered statistically significant.

[2] = Stability of the three alkaloids in rat plasma QC samples (4°C, room temperature, freeze-thaw); assay type: in vitro ADME; conditions: for Freeze-thaw Accuracy: freeze-thaw three times; for Room temperature stability (24 h) Accuracy: room temperature (about 25°C)
Procedure: Plasma from rats without any processing was used to evaluate the detection methods. 0.1, 0.25, 0.5, 1, 2.5, 5, 10 ng/ml were chosen to calculate standards curve. 0.1, 0.4, 4, 8 ng/mL were selected as the QC sample (n = 4) with repeated operations used to calculate accuracy and precision of the detection method. The data was acquired after keeping the samples at either +4°C 24 hours or room temperature (about 25°C) for 24 hours as well as using freeze-thaw methods (three times) to evaluate stability. Recovery of the developed methods was calculated by the following formula: recovery = measured value/ theoretical value × 100%.

[3] = P. ginseng-high (10 g/kg oral, 7 days)
[4] = P. ginseng-low (0.1 g/kg oral, 7 days)
[5] = P. ginseng-middle (1 g/kg oral, 7 days)
[6] = control group (distilled water 7 days)

## COC[C@]12CN(C)[C@@H]3[C@@H]4[C@H](OC)[C@H]1[C@@]3([C@@H](OC)C[C@H]2O)[C@@H]1C[C@@]2(O)[C@H](OC(=O)c3ccccc3)[C@@H]1[C@]4(OC(C)=O)[C@@H](O)[C@@H]2OC [Mesaconitine]
[1]; [3]
  AUC(0-t): 126.07 ± 44.93^∗∗ μg/L∗h
  AUC(0-∞): 138.96 ± 55.36^∗∗ μg/L∗h
  CLz/F: 81.37 ± 29.62^∗∗ L/h/Kg
  Cmax: 8.94 ± 2.33^∗ μg/L
  Tmax: 2.20 ± 1.98 h
  Vz/F: 1395.19 ± 472.75^∗∗ L/kg
  t1/2z: 12.56 ± 4.48 h
[1]; P. ginseng-high (10 g/kg oral, 7 days), listed as mesaconitine
  AUC(0-t): 126.07 ± 44.93 μg/L∗h
[1]; [4]
  AUC(0-t): 65.53 ± 9.06 μg/L∗h
  AUC(0-∞): 71.36 ± 12.85 μg/L∗h
  CLz/F: 144.13 ± 26.77 L/h/kg
  Cmax: 4.66 ± 1.03 µg/L
  Tmax: 0.89 ± 0.60 h
  Vz/F: 2386.47 ± 832.39 L/kg
  t1/2z: 12.12 ± 6.11 h
[1]; [5]
  AUC(0-t): 82.45 ± 18.57^∗ μg/L∗h
  AUC(0-∞): 87.1 ± 21.80^∗ μg/L∗h
  CLz/F: 120.75 ± 29.09^∗ L/h/Kg
  Cmax: 6.02 ± 1.63 µg/L
  Tmax: 1.83 ± 1.21 h
  Vz/F: 1745.91 ± 488.37^∗ L/kg
  t1/2z: 10.31 ± 3.00 h
[1]; P. ginseng-middle (1 g/kg oral, 7 days), listed as mesaconitine
  AUC(0-t): 82.45 ± 18.57 μg/L∗h
[1]; [6]
  AUC(0-t): 51.24 ± 21.48 μg/L∗h
  AUC(0-∞): 58.66 ± 27.59 μg/L∗h
  CLz/F: 217.47 ± 130.54 L/h/kg
  Cmax: 5.48 ± 2.61 µg/L
  Tmax: 1.58 ± 1.32 h
  Vz/F: 3146.87 ± 1886.84 L/kg
  t1/2z: 13.17 ± 10.45 h
[2]; QC conc. 0.40 ng/mL
  4°C temperature stability (24 h) Accuracy: 100.28 ± 8.73%
  Freeze-thaw Accuracy: 95.09 ± 7.31%
  Room temperature stability (24 h) Accuracy: 96.34 ± 6.95%
[2]; QC conc. 4.00 ng/mL
  4°C temperature stability (24 h) Accuracy: 97.02 ± 9.18%
  Freeze-thaw Accuracy: 100.37 ± 8.92%
  Room temperature stability (24 h) Accuracy: 93.68 ± 2.77%
[2]; QC conc. 8.00 ng/mL
  4°C temperature stability (24 h) Accuracy: 99.43 ± 4.57%
  Freeze-thaw Accuracy: 99.59 ± 3.35%
  Room temperature stability (24 h) Accuracy: 100.72 ± 4.78%
